Test results published in paper PMC5949604.

Test: aziridine aldehyde dimer (S-serine-type dimer 3, parent) + tBuNC multicomponent (disrupted Ugi) head-to-tail macrocyclisation of N-terminal Pro peptides; linker inserts CH-CH-N between Pro N and C-terminal C=O (forms Pro N-C bond and C-terminal acyl aziridine N-C(=O) bond)
Conditions: the molecule shown is the open-chain precursor, TFE, 100.0 mM

Compound: CC(C)C[C@H](NC(=O)CNC(=O)[C@]1(C)CCCN1)C(=O)NCC(=O)N[C@H](Cc1ccccc1)C(=O)O [H-L-alpha-MePro-Gly-Leu-Gly-D-Phe-OH]
- ring closure, isolated yield (18-membered ring): 0%

Compound: CC(C)C[C@H](NC(=O)CNC(=O)C[C@@H]1CCCN1)C(=O)NCC(=O)N[C@H](Cc1ccccc1)C(=O)O [H-L-beta-homoPro-Gly-Leu-Gly-D-Phe-OH]
- ring closure, isolated yield (19-membered ring): 0%

Compound: CC(C)C[C@H](NC(=O)[C@H](COC(C)(C)C)NC(=O)C[C@@H]1CCCN1)C(=O)N[C@@H](Cc1ccc(OC(C)(C)C)cc1)C(=O)N[C@@H](Cc1ccccc1)C(=O)O [H-L-beta-homoPro-Ser(tBu)-Leu-Tyr(tBu)-Phe-OH]
- ring closure, isolated yield (19-membered ring): 0%

Compound: CC(C)C[C@H](NC(=O)[C@H](C)NC(=O)[C@@H]1CCCN1)C(=O)NCC(=O)N[C@@H](Cc1ccccc1)C(=O)O [H-Pro-Ala-Leu-Gly-Phe-OH]
- ring closure, isolated yield (18-membered ring, 4.0 h): 12%

Compound: CC(C)C[C@@H](NC(=O)CNC(=O)[C@@H]1CCCN1)C(=O)NCC(=O)N[C@H](CCCCNC(=O)OC(C)(C)C)C(=O)O [H-Pro-Gly-D-Leu-Gly-D-Lys(Boc)-OH]
- ring closure, isolated yield (18-membered ring, 6.0 h): 0%

Compound: CC(C)C[C@@H](NC(=O)CNC(=O)[C@@H]1CCCN1)C(=O)NCC(=O)N[C@@H](Cc1ccccc1)C(=O)O [H-Pro-Gly-D-Leu-Gly-Phe-OH]
- ring closure, isolated yield (18-membered ring, 4.0 h): 28%

Compound: CC(C)C[C@H](NC(=O)CNC(=O)[C@@H]1CCCN1)C(=O)N[C@@H](C)C(=O)N[C@@H](Cc1ccccc1)C(=O)O [H-Pro-Gly-Leu-Ala-Phe-OH]
- ring closure, isolated yield (18-membered ring, 6.0 h): 9%

Compound: CC(C)C[C@H](NC(=O)CNC(=O)[C@@H]1CCCN1)C(=O)NCC(=O)N[C@H](Cc1ccccc1)C(=O)O [H-Pro-Gly-Leu-Gly-D-Phe-OH]
- ring closure, isolated yield (18-membered ring, 4.0 h): 0%

Compound: CC(C)C[C@H](NC(=O)CNC(=O)[C@@H]1CCCN1)C(=O)NCC(=O)N[C@@H](CCCCNC(=O)OC(C)(C)C)C(=O)O [H-Pro-Gly-Leu-Gly-Lys(Boc)-OH]
- ring closure, isolated yield (18-membered ring, 6.0 h): 23%

Compound: CC(C)C[C@H](NC(=O)CNC(=O)[C@@H]1CCCN1)C(=O)NCC(=O)N[C@@H](Cc1ccccc1)C(=O)O [H-Pro-Gly-Leu-Gly-Phe-OH]
- ring closure, isolated yield (18-membered ring, 4.0 h): 34%

Compound: CC(C)C[C@H](NC(=O)CNC(=O)[C@@H]1CCCN1)C(=O)N[C@@H](CCCCNC(=O)OC(C)(C)C)C(=O)O [H-Pro-Gly-Leu-Lys(Boc)-OH]
- ring closure, isolated yield (15-membered ring, 6.0 h): 0%

Compound: O=C(CNC(=O)[C@@H]1CCCN1)N[C@@H](Cc1ccccc1)C(=O)O [H-Pro-Gly-Phe-OH]
- ring closure, isolated yield (12-membered ring, 4.0 h): 0%

Compound: CC(C)C[C@H](NC(=O)[C@H](CC(C)C)N(C)C(=O)[C@@H]1CCCN1)C(=O)NCC(=O)N[C@@H](Cc1ccccc1)C(=O)O [H-Pro-N-Me-Leu-Leu-Gly-Phe-OH]
- ring closure, isolated yield (18-membered ring): 0%

Compound: CC(C)C[C@H](NC(=O)CN(C)C(=O)[C@@H]1CCCN1)C(=O)NCC(=O)N[C@@H](Cc1ccccc1)C(=O)O [H-Pro-Sar-Leu-Gly-Phe-OH]
- ring closure, isolated yield (18-membered ring): 0%

Compound: CC(C)C[C@H](NC(=O)[C@H](COC(C)(C)C)NC(=O)[C@@H]1CCCN1)C(=O)NCC(=O)N[C@@H](Cc1ccccc1)C(=O)O [H-Pro-Ser(tBu)-Leu-Gly-Phe-OH]
- ring closure, isolated yield (18-membered ring, 4.0 h): 49%

Compound: CC(C)C[C@H](NC(=O)[C@H](COC(C)(C)C)NC(=O)[C@@H]1CCCN1)C(=O)N[C@@H](Cc1ccc(OC(C)(C)C)cc1)C(=O)N[C@@H](Cc1ccccc1)C(=O)O [H-Pro-Ser(tBu)-Leu-Tyr(tBu)-Phe-OH]
- ring closure, isolated yield (18-membered ring, 4.0 h): 22%
